Assay results reported in patent US7348304B1, “Fragrance material” (priority 2004, dated 2008).
Where two headings read alike, the source gives them in different places. Each block holds one compound with its values, some of them ahead of it.

Assays:
[1] = prior-art characterisation; cited from earlier work
[2] = Odor character / fragrance assessment of the material and fractions
subjects = assay: Determination of approximate aqueous odor threshold (paired beakers, sniffing); assay type: in vivo; set-up: key: “X” means correct positive identification; “-” means unable to identify
Method: 2 mg of the compound of the invention according to Example I were dissolved in 1.0 ml ethanol and serial dilutions made in deionized water to give test solutions of the compound at concentrations of 100, 20, 4, and 1 ppb.
Pairs of loosely-covered beakers were presented to three subjects, one beaker containing deionized water and the other a test solution. The subjects were asked to identify the beaker containing the test solution by removing the covers and sniffing, with the following results (“X” means correct positive identification, “-” means unable to identify): […]

[3] = Assessment of stability of the compound (olfactory assessment of stored aqueous solution); assay type: physicochemical
Method: 50 ml of a 250-ppb aqueous solution of the compound of the invention according to Example I was held in a covered 100 ml glass weighing bottle for seven months. Environmental conditions were ambient room light (fluorescent and indirect sunlight during daytime; dark at night) and temperature (16-26° C.). The bottle was opened approximately bi-weekly, admitting fresh air and allowing olfactory assessment of the odor strength.

Structure (SMILES): CC(=O)C1=C(C)[C@@H]2C[C@@]3(C1)[C@H](C)CC[C@H]3C2(C)C [methyl cedryl ketone]
odor [1]: musk-woody

Structure (SMILES): CC(=O)O[C@]1(C)CC[C@@]23C[C@@H]1C(C)(C)[C@@H]2CC[C@H]3C [cedryl acetate]
odor [1]: woody-vetiver

Structure (SMILES): C[C@H]1C(=O)C[C@@H]2[C@@H]3[C@H]1[C@@]2(C)CCCC3(C)C [The C-9 epimer, (1R,2S,7R,8R,9R)-2,6,6,9-tetramethyltricyclo-[5.4.0.0^2,8]undecan-10-one, reference compound]
odor character [2]: no distinctive or useful fragrance properties

Structure (SMILES): CC(=O)/C=C/[C@@H]1C(C)=CCCC1(C)C [(S)-alpha-ionone]
odor [1]: cedarwood, raspberry

Structure (SMILES): CC1CCC2C(C)(C)C3CC12CC1OC13C (centres unmarked) [cedrene epoxide]
odor [1]: woody-amber-camphor

Structure (SMILES): CO[C@@]1(C)CC[C@@]23C[C@@H]1C(C)(C)[C@@H]2CC[C@H]3C [methyl cedryl ether]
odor [1]: woody-amber

Structure (SMILES): C=C(C[C@H](C)CO)[C@H]1CC=C(C)C1(C)C [(−)-(1′R,2S)-2-methyl-4-(2′,2′,3′-trimethyl-3′-cyclopenten-1′-yl)-4-penten-1-ol]
odor [1]: sandalwood; cedar

odor intensity after storage ([3]; 250-ppb aqueous solution, seven months, ambient room light, 16-26° C., opened approximately bi-weekly): No decrease in odor intensity
Structure (SMILES): C[C@@H]1C(=O)C[C@@H]2[C@@H]3[C@H]1[C@@]2(C)CCCC3(C)C [the compound of the invention, (1R,2S,7R,8R,9S)-2,6,6,9-tetramethyltricyclo[5.4.0.0^2,8]undecan-10-one]
identification of the beaker containing the test solution (subjects; 1 ppb in deionized water, Subject 3): X
identification of the beaker containing the test solution (subjects; 4 ppb in deionized water, Subject 1): X
identification of the beaker containing the test solution (subjects; 4 ppb in deionized water, Subject 3): X
identification of the beaker containing the test solution (subjects; 20 ppb in deionized water, Subject 1): X
identification of the beaker containing the test solution (subjects; 20 ppb in deionized water, Subject 3): X
identification of the beaker containing the test solution (subjects; 100 ppb in deionized water, Subject 1): X
identification of the beaker containing the test solution (subjects; 100 ppb in deionized water, Subject 2): X
identification of the beaker containing the test solution (subjects; 100 ppb in deionized water, Subject 3): X
stability ([3]; action of light, oxygen, and moisture): stable against the action of light, oxygen, and moisture
odor character ([2]; listed as Example III): Cedar, woody, cigar box, tobacco, slightly animal—civet. Long-lasting in dry-down.
odor character ([2]; listed as The compound): intense, pleasant and characteristic cedar wood odor

Structure (SMILES): CCC(=O)C1CCC=CCCC=CCCC1 (centres unmarked) [1-(4,8-cyclododecadienyl)-1-propanone]
odor [1]: cedarwood, amber, pepper
